Test results: patent US20060263802A1 (priority 2003, published 2006)

Assays:
Assay type in all cases: binding
[1] = test system: human monoclonal antibody CRJA
[2] = test system: human monoclonal antibody CRJB
[3] = test system: human monoclonal antibody CR57
[4] = test system: human monoclonal antibody CRJB; remark: listed apart in the source
[5] = test system: human monoclonal antibody CRJA; remark: listed apart in the source
[6] = test system: human monoclonal antibody CR57; remark: listed apart in the source

| Sequence | Binding of CRJA (10 μg/ml) to looped/cyclic peptide (PEPSCAN-ELISA signal) [1] | Binding of CRJB (10 μg/ml) to looped/cyclic peptide (PEPSCAN-ELISA signal) [2] | Binding of CR57 to linear peptide (PEPSCAN-ELISA signal) [3] | Binding of CRJB to linear peptide (PEPSCAN-ELISA signal) [4] | Binding of CRJA to linear peptide (PEPSCAN-ELISA signal) [5] | Binding of CR57 (10 μg/ml) to looped/cyclic peptide (PEPSCAN-ELISA signal) [6] | Binding of CRJA (10 μg/ml) to looped/cyclic peptide (PEPSCAN-ELISA) [1] | Binding of CRJB (10 μg/ml) to looped/cyclic peptide (PEPSCAN-ELISA) [2] | binding of antibody CR57 to linear peptide (PEPSCAN OD) [3] | strength of binding of CR57 (OD value compared with the other peptides / twice the average value) [3] | Binding of CR57 (10 μg/ml) to looped/cyclic peptide (PEPSCAN-ELISA) [6] | Binding of CRJA to looped/cyclic peptide (PEPSCAN-ELISA signal) [1] | Binding of CRJB to looped/cyclic peptide (PEPSCAN-ELISA signal) [2] | Binding of human monoclonal antibody CR57 to linear peptide (PEPSCAN-ELISA signal) [3] | Binding of human monoclonal antibody CRJB to linear peptide (PEPSCAN-ELISA signal) [4] | Binding of human monoclonal antibody CRJA to linear peptide (PEPSCAN-ELISA signal) [5] | Binding of CR57 to looped/cyclic peptide (PEPSCAN-ELISA signal) [6] |
| --- | --- | --- | --- | --- | --- | --- | --- | --- | --- | --- | --- | --- | --- | --- | --- | --- | --- |
| AAYNWKMAGDPRYEE | 78 | 90 | 68 | 106 | 78 | 104 | – | – | – | – | – | – | – | – | – | – | – |
| ACKLKLCGVLGLRLM | – | – | 148 | 117 | 79 | – | 71 | 92 | bound | lower than twice the average value | 111 | – | – | – | – | – | – |
| ACRAAYNWKMAGDPR | 110 | 93 | 82 | 116 | 93 | 138 | – | – | – | – | – | – | – | – | – | – | – |
| ADAHYKSVRTWNEIL | – | – | 56 | 100 | 93 | – | 90 | 82 | – | – | 69 | – | – | – | – | – | – |
| ADLDPYDRSLHSRVF | 92 | 73 | 70 | 121 | 100 | 93 | – | – | – | – | – | – | – | – | – | – | – |
| ADPSTVFKDGDEAED | – | – | – | – | – | – | – | – | – | – | – | 101 | 72 | 147 | 152 | 101 | 118 |
| AEDFVEVHLPDVHNQ | – | – | – | – | – | – | – | – | – | – | – | 101 | 90 | 123 | 138 | 114 | 117 |
| AENYTNFVGYVTTTF | 46 | 68 | 66 | 106 | 74 | 58 | – | – | – | – | – | – | – | – | – | – | – |
| AGDPRYEESLHNPYP | 58 | 54 | 40 | 101 | 83 | 64 | – | – | – | – | – | – | – | – | – | – | – |
| AHYKSVRTWNEILPS | – | – | 112 | 160 | 106 | – | 104 | 106 | – | – | 106 | – | – | – | – | – | – |
| AIKMNGFTCTGVVTE | 71 | 79 | 47 | 103 | 93 | 69 | – | – | – | – | – | – | – | – | – | – | – |
| ALESIMTTKSVSFRR | – | – | 97 | 132 | 107 | – | 108 | 111 | – | – | 136 | – | – | – | – | – | – |
| AMQTSNETKWCPPDQ | – | – | 104 | 114 | 85 | – | 90 | 58 | – | – | 84 | – | – | – | – | – | – |
| ASKGSETCGFVDERG | – | – | 97 | 108 | 106 | – | 120 | 94 | – | – | 96 | – | – | – | – | – | – |
| AVSSTYCSTNHDYTI | 91 | 79 | 71 | 105 | 102 | 129 | – | – | – | – | – | – | – | – | – | – | – |
| AYNWKMAGDPRYEES | 72 | 77 | 96 | 94 | 90 | 96 | – | – | – | – | – | – | – | – | – | – | – |
| AYTIFNKTLMEADAH | – | – | 86 | 121 | 98 | – | 97 | 78 | – | – | 118 | – | – | – | – | – | – |
| CDIFTNSRGKRASKG | 101 | 90 | 42 | 104 | 133 | 1 | – | – | – | – | – | – | – | – | – | – | – |
| CGFVDERGLYKSLKG | – | – | 72 | 115 | 94 | – | 90 | 76 | – | – | 85 | – | – | – | – | – | – |
| CGVLGLRLMDGTWVA | – | – | 99 | 117 | 96 | – | 101 | 91 | – | – | 110 | – | – | – | – | – | – |
| CHPHVNGVFFNGIIL | – | – | 97 | 150 | 94 | – | 105 | 101 | – | – | 113 | – | – | – | – | – | – |
| CKLKLCGVLGLRLMD | – | – | 410 | 111 | 88 | – | 91 | 74 | bound | – | 64 | – | – | – | – | – | – |
| CLDALESIMTTKSVS | – | – | 101 | 146 | 106 | – | 123 | 90 | – | – | 111 | – | – | – | – | – | – |
| CLRVGGRCHPHVNGV | – | – | 102 | 132 | 103 | – | 111 | 104 | – | – | 101 | – | – | – | – | – | – |
| CPNNLVVEDEGCTNL | 84 | 54 | 77 | 97 | 75 | 79 | – | – | – | – | – | – | – | – | – | – | – |
| CPPDQLVNLHDFRSD | – | – | 93 | 137 | 115 | – | 92 | 123 | – | – | 137 | – | – | – | – | – | – |
| CRAAYNWKMAGDPRY | 111 | 68 | 87 | 118 | 113 | 107 | – | – | – | – | – | – | – | – | – | – | – |
| CSGVAVSSTYCSTNH | 94 | 90 | 110 | 165 | 106 | 94 | – | – | – | – | – | – | – | – | – | – | – |
| CSTNHDYTIWMPENP | 41 | 72 | 52 | 106 | 58 | 47 | – | – | – | – | – | – | – | – | – | – | – |
